From patent US9737504B2, “Dihydroorotic and acid dehydrogenase inhibitor” (NAI INC., priority 2012, dated 2017)
Where two headings read alike, the source gives them in different places.

Assays:
human DHOD [1] = target: T1, human DHOD (Homo sapiens, UniProt Q02127); assay: Measurement of DHOD inhibitory activity (DCIP reduction, end point assay); type: biochemical; conditions: read-out: DHOD inhibition rate (%) 100 nM; 100 nM compound
human DHOD [2] = target: T1, human DHOD; assay: as above; type: biochemical; conditions: for inhibition at 0.2 µM: read-out: DHOD inhibition rate (%) 200 nM, 200 nM compound; for IC50: read-out: IC50 (nM) human DHOD (HsDHOD)
Method: The compounds of the present invention were used and measured for their DHOD inhibitory activity at concentrations of 200 nM and 1000 nM.
Reduction of DCIP was measured at 600 nm over 20 minutes.

[3] = test system: DLD-1 cells (human colorectal cancer cells); assay: Inhibitory effect on DLD-1 cells, control vs hypoxic and subnutritional conditions; type: cell-based; conditions: for IC50: Homo sapiens
Method: (§1) For these reasons, cells of colorectal and pancreatic cancers, each being regarded as intractable, were used to test the inhibitory effect of compounds under hypoxic and subnutritional conditions. Moreover, the same test was also performed on normal skin cells.
The cells used were two types of cancer cells, i.e., DLD-1 cells (human colorectal cancer cells) and Panc-1 cells (human pancreatic cells), as well as HDF cells (human dermal fibroblast cells). Culture conditions were set as follows: 21% oxygen with glucose and […] (10% FBS) for the control group, and 1% oxygen without glucose and […] (10% FBS) for the hypoxic and subnutritional group. The results obtained are shown in Tables 3, 4 and 5, as well as FIGS. 1, 2 and 3.

KM-12 = assay: JFCR39 cancer cell growth inhibition test, KM-12; type: cell-based; conditions: Homo sapiens, KM12; KM-12, Co (Colon)
OVCAR-8 = assay: JFCR39 cancer cell growth inhibition test, OVCAR-8; type: cell-based; conditions: Homo sapiens; OVCAR-8, Ov (Ovarian)
[4] = test system: HDF cells (human dermal fibroblast cells); assay: Inhibitory effect on HDF cells, control vs hypoxic and subnutritional conditions; type: cell-based; conditions: for Selectivity = 21% glc(+)gln(+) IC50/1% glc(−)gln(−) IC50: HDF; for IC50: Homo sapiens, HDF normal skin cells
Method: as §1
The cells used were two types of cancer cells, i.e., DLD-1 cells (human colorectal cancer cells) and Panc-1 cells (human pancreatic cells), as well as HDF cells (human dermal fibroblast cells).

bovine complex II-III = assay: Inhibition of bovine complex II-III; type: biochemical
MKN28 = assay: JFCR39 cancer cell growth inhibition test, MKN28; type: cell-based; conditions: Homo sapiens, MKN-28; MKN28, St (Stomac)
HCC2998 = assay: JFCR39 cancer cell growth inhibition test, HCC2998; type: cell-based; conditions: Homo sapiens, HCC 2998; HCC2998, Co (Colon)
MKN74 = assay: JFCR39 cancer cell growth inhibition test, MKN74; type: cell-based; conditions: Homo sapiens, MKN-74; MKN74, St (Stomac)
DLD-2 colon cancer = conditions: in vivo; cited from earlier work
UMP levels = conditions: after treatment with 25 μM NSC368390; cited from earlier work
[5] = test system: human MX-1 breast, LX-1 lung, BL/STX-1 stomach and CX-1 colon carcinomas; conditions: nude mice, 20 to 40 mg/kg/day; MX-1, LX-1, BL/STX-1, CX-1; cited from earlier work
L0X-IMVI = assay: JFCR39 cancer cell growth inhibition test, L0X-IMVI; type: cell-based; conditions: Homo sapiens, Me (Melanoma)
[6] = read-out: IC50 DLD-1 [μM] 1% O2 glc(−)gln(−), DLD-1, 1% O2 glc(−)gln(−), 24 hours
[7] = read-out: IC50 DLD-1 [μM] 1% O2 glc(−)gln(−), DLD-1, 1% O2 glc(−)gln(−), 48 hours
[8] = read-out: IC50 [μM] 1% O2 glc(−)gln(−), 1% O2 glc(−)gln(−)

T1 sequence (Q02127 whole entry): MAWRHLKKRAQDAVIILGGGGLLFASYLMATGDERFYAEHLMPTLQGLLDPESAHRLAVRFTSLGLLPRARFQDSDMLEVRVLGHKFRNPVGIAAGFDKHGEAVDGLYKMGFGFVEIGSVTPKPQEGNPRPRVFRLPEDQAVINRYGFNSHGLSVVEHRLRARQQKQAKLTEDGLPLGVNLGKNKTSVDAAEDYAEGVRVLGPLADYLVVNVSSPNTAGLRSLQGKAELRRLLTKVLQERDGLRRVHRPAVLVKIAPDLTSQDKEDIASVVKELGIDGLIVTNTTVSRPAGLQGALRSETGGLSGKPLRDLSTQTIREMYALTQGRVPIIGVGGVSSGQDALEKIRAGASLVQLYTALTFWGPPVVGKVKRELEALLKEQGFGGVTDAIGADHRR

inhibition at 0.1 µM (human DHOD [1]) | inhibition at 0.2 µM (human DHOD [2]) | IC50 (human DHOD [2]) | melting point | GI50 (KM-12) | SMILES | other results
97% | 86% | 33 ± 3 nM | 35 to 36 °C | – | C/C(=C\Cc1c(O)c(Cl)c(C)c(C=O)c1O)CC/C=C(\C)COC1CCCO1 (stereo not drawn) [236-12-OTHF, 3-Chloro-5-(2E,6E)-3,7-dimethyl-8-(tetrahydrofuran-2-yloxy)-2,6-octadienyl-4,6-dihydroxy-2-methylbenzaldehyde] | –
100% | 100% | 4.2 nM | – | 6.4 µM | COC(=O)/C(C)=C/CC/C(C)=C/Cc1c(O)c(Cl)c(C)c(C=O)c1O [275-10-COOMe, Methyl (2E,6E)-8-(3-chloro-5-formyl-2,6-dihydroxy-4-methyl)phenyl-2,6-dimethyl-2,6-octa dienoate] | Selectivity = 21% glc(+)gln(+) IC50/1% glc(−)gln(−) IC50 ([3]; DLD-1, 24 hours): >59; Selectivity = 21% glc(+)gln(+) IC50/1% glc(−)gln(−) IC50 ([3]; DLD-1, 48 hours): >156; IC50 [3, 6]: 1.7 µM; IC50 [3, 7]: 0.64 µM; GI50 (OVCAR-8): 4.4 µM; Selectivity = 21% glc(+)gln(+) IC50/1% glc(−)gln(−) IC50 [4]: >32; IC50 (bovine complex II-III): 1900 nM
109% | 101% | 21.5 nM | 62 to 63 °C | 10 µM | C/C(=C\COC(=O)C(C)C)CC/C(C)=C/Cc1c(O)c(Cl)c(C)c(C=O)c1O [287-12-OCOiPr, (2E,6E)-8-(3-Chloro-5-formyl-2,6-dihydroxy-4-methylphenyl)-3,6-dimethyl-2,6-octa dienyl isobutylate] | GI50 (MKN28): 10 µM; GI50 (HCC2998): 15 µM; GI50 (MKN74): 14 µM; GI50 (OVCAR-8): 9.1 µM
94% | 104% | 6 nM | – | 2 µM | CC(C)=CCC/C(C)=C/CC/C(C)=C/Cc1c(O)c(Cl)c(C)c(C=O)c1O [280-12, (E,E)-3-Chloro-4,6-dihydroxy-5-(3,7,11-trimethyl-2,6,10-dodecatienyl)-2-methylbenzaldehyde] | Selectivity = 21% glc(+)gln(+) IC50/1% glc(−)gln(−) IC50 ([3]; DLD-1, 24 hours): 1100; Selectivity = 21% glc(+)gln(+) IC50/1% glc(−)gln(−) IC50 ([3]; DLD-1, 48 hours): 1480; IC50 [3, 6]: 0.069 µM; IC50 [3, 7]: 0.025 µM; IC50 ([3]; DLD-1, 21% O2 glc(+)gln(+), 24 hours, read-out: IC50 DLD-1 [μM] 21% O2 glc(+)gln(+)): 76 µM; IC50 ([3]; DLD-1, 21% O2 glc(+)gln(+), 48 hours, read-out: IC50 DLD-1 [μM] 21% O2 glc(+)gln(+)): 37 µM; GI50 (MKN74): 1.3 µM; Selectivity = 21% glc(+)gln(+) IC50/1% glc(−)gln(−) IC50 [4]: 353; IC50 [4, 8]: 0.17 µM; IC50 ([4]; 21% O2 glc(+)gln(+), read-out: IC50 [μM] 21% O2 glc(+)gln(+)): 60 µM; IC50 (bovine complex II-III): 260 nM
98% | 90% | 31 ± 3 nM | 111.2 to 111.4 °C | – | C/C(C=O)=C\CC/C(C)=C/Cc1c(O)c(Cl)c(C)c(C=O)c1O [274-9, 3-Chloro-5-[(2E,6E)-3,7-dimethyl-8-oxo-2,6-octadienyl]-4,6-dihydroxy-2-methylbenzaldehyde] | –
107% | 75% | 64 nM | – | 32 µM | C/C(=C\Cc1c(O)c(Cl)c(C)c(C=O)c1O)CC/C=C(\C)C(C)O (stereo not drawn) [277-9-OH, 3-Chloro-4,6-dihydroxy-2-methyl-5-(2E,6E)-(8-hydroxy-3,7-dimethyl-2,6-nonadienyl)benzaldehyde] | –
95% | 76% | 60 ± 21 nM | – | – | COC(CC(=O)C(C)(C)C)/C(C)=C/CC/C(C)=C/Cc1c(O)c(Cl)c(C)c(C=O)c1O (stereo not drawn) [271-12, 3-Chloro-4,6-dihydroxy-2-methyl-5-(2E,6E)-(8-methoxy-3,7,11,11-tetramethyl-10-oxo-2,6-dodecadienyl)benzaldehyde] | –
– | – | – | – | – | Cc1c(-c2ccc(-c3ccccc3F)cc2)nc2ccc(F)cc2c1C(=O)[O-].[Na+] [NSC368390, 6-Fluoro-2-(2′-fluoro-1,1′-biphenyl-4-yl)-3-methyl-4-quinolinecarboxylic Acid Sodium Salt] | growth inhibition of DLD-2 colon cancer (DLD-2 colon cancer): 98%; reduction of UMP levels (UMP levels): 50%; inhibition of the growth of human carcinomas [5]: ≥ 90%
103% | 97% | 6.5 nM | – | 5.7 µM | CC(=O)OC(C)/C(C)=C/CC/C(C)=C/Cc1c(O)c(Cl)c(C)c(C=O)c1O (stereo not drawn) [277-11-OAc, (3E,7E)-9-(3-Chloro-5-formyl-2,6-dihydroxy-4-methyl)phenyl-3,7-dimethyl-3,7-nonadien-2-yl acetate] | Selectivity = 21% glc(+)gln(+) IC50/1% glc(−)gln(−) IC50 ([3]; DLD-1, 24 hours): >53; Selectivity = 21% glc(+)gln(+) IC50/1% glc(−)gln(−) IC50 ([3]; DLD-1, 48 hours): >109; IC50 [3, 6]: 1.9 µM; IC50 [3, 7]: 0.92 µM; Selectivity = 21% glc(+)gln(+) IC50/1% glc(−)gln(−) IC50 [4]: >25; IC50 [4, 8]: 4 µM; IC50 (bovine complex II-III): 4500 nM; GI50 (L0X-IMVI): 1500 nM
85% | 51% | 326 ± 41 nM | 73 °C | – | Cc1c(Cl)c(O)c(/C=C/CCCCCCOC(=O)C(C)C)c(O)c1C=O [200-12-OCOiPr, (E)-8-(3-Chloro-5-formyl-2,6-dihydroxy-4-methylphenyl)-7-octenyl isobutylate] | –
96% | 87% | 24 ± 3 nM | 119 to 120 °C | – | CC(=O)/C(C)=C/CC/C(C)=C/Cc1c(O)c(Cl)c(C)c(C=O)c1O [276-9] | –
100% | 79% | 50 ± 5 nM | 36 to 37 °C | – | C/C(=C\Cc1c(O)c(Cl)c(C)c(C=O)c1O)CC/C=C(\C)CCC1OC1(C)C (stereo not drawn) [281-12, 3-Chloro-5-(2E,6E)-3,7-dimethyl-9-(3,3-dimethyloxiran-2-yl)-2,6-nonadienyl-4,6-dihydroxy-2-methylbenzaldehyde] | –
98% | 75% | 67 ± 7 nM | – | – | COC(C)(C)CCC/C(C)=C/Cc1c(O)c(Cl)c(C)c(C=O)c1O [231-9-OMe, 3-Chloro-4,6-dihydroxy-5-[(E)-7-methoxy-3,7-dimethyl-2-octeny]-2-methyl benzaldehyde] | –
103% | 82% | 44 ± 5 nM | 99 to 99.7 °C | – | C/C(=C\CC/C(C)=C/Cc1c(O)c(Cl)c(C)c(C=O)c1O)CO [236-9-OH, 3-Chloro-4,6-dihydroxy-5-(2E,6E)-8-hydroxy-3,7-dimethyl-2,6-octadienyl-2-methylbenzaldehyde] | –
